From patent US11840497B2, “4-(p-quinonyl)-2-hydroxybutanamide derivatives for treatment of mitochondrial diseases” (PTC Therapeutics, Inc., priority 2007, dated 2023)

Key:
Format in all cases: cell-based
[1] = tested on: Human dermal fibroblasts from Friedreich's Ataxia patients; experiment: Rescue of BSO-stressed FRDA fibroblasts (Example A); details: FRDA fibroblasts GM04078, 1 mM BSO, read-out: protection against FRDA, EC50
Protocol: Test samples, 4 reference compounds (idebenone, decylubiquinone, Trolox and α-tocopherol acetate), and solvent controls were tested for their ability to rescue FRDA fibroblasts stressed by addition of L-buthionine (S,R)-sulfoximine (BSO), as described in Jauslin et al., Hum. Mol. Genet. […] Mol. Genet. […] This specific BSO-mediated cell death can be prevented by administration of antioxidants or molecules involved in the antioxidant pathway, such as α-tocopherol, selenium, or small molecule glutathione peroxidase mimetics. However, antioxidants differ in their potency, i.e. the concentration at which they are able to rescue BSO-stressed FRDA fibroblasts.
Fetal Calf Serum was obtained from PAA Laboratories. Basic fibroblast growth factor and epidermal growth factor were purchased from PeproTech. Penicillin-streptomycin-glutamine mix, L-buthionine (S,R)-sulfoximine, (+)-α-tocopherol acetate, decylubiquinone, and insulin from bovine pancreas were purchased from Sigma. Trolox (6-Hydroxy-2,5,7,8-tetramethylchroman-2-carboxylic acid) was obtained from Fluka. Idebenone was obtained from Chemo Iberica. Calcein AM was purchased from Molecular Probes. Cell culture medium was made by combining 125 ml M199 EBS, 50 ml Fetal Calf Serum, 100 U/ml penicillin, 100 μg/ml streptomycin, 2 mM glutamine, 10 μg/ml insulin, 10 ng/ml EGF, and 10 ng/ml bFGF; MEM EBS was added to make the volume up to 500 ml. […] During the course of the experiments, this solution was stored at +4° C. The cells were obtained from the Coriell Cell Repositories (Camden, NJ; repository number GM04078) and grown in 10 cm tissue culture plates. Every third day, they were split at a 1:3 ratio.
The test samples were supplied in 1.5 ml glass vials. […] Once dissolved, they were stored at −20° C. Reference antioxidants (idebenone, decylubiquinone, α-tocopherol acetate and trolox) were dissolved in DMSO.
Test samples were screened according to the following protocol: A culture with FRDA fibroblasts was started from a 1 ml vial with approximately 500,000 cells stored in liquid nitrogen. […] Once confluent, fibroblasts were harvested. […] The remaining cells were distributed in 10 cm cell culture plates (500,000 cells/plate) for propagation. The plates were incubated overnight at 37° C. in a atmosphere with 95% humidity and 5% CO2 to allow attachment of the cells to the culture plate.
MTP medium (243 μl) was added to a well of the microtiter plate. […] Serial dilutions from the master solution were made. The period between the single dilution steps was kept as short as possible (generally less than 1 second).
Plates were kept overnight in the cell culture incubator. The next day, 10 μl of a 10 mM BSO solution were added to the wells, resulting in a 1 mM final BSO concentration. Forty-eight hours later, three plates were examined under a phase-contrast microscope to verify that the cells in the 0% control (wells E1-H1) were clearly dead. The medium from all plates was discarded, and the remaining liquid was removed by gently tapping the plate inversed onto a paper towel.
The plates were incubated for 50-70 minutes at room temperature. After that time the PBS was discarded, the plate gently tapped on a paper towel and fluorescence (excitation/emission wavelengths of 485 nm and 525 nm, respectively) was read on a Gemini fluorescence reader. Data was imported into Microsoft Excel (EXCEL is a registered trademark of Microsoft Corporation for a spreadsheet program) and used to calculate the EC50 concentration for each compound.
The compounds were tested three times, i.e., the experiment was performed three times, the passage number of the cells increasing by one with every repetition.
The viability of non-BSO treated fibroblasts was set as 100%, and the viability of the BSO- and compound-treated cells was calculated as relative to this value.

[2] = tested on: human dermal fibroblasts from CoQ10 deficient patients; experiment: Rescue of stressed fibroblasts from CoQ10 deficient patients (Example E); details: Fibroblast, fibroblasts harboring a CoQ2 mutation, screen similar to Example A, read-out: protection against CoQ10 deficiency, EC50
Protocol: Compounds of the invention were tested using a screen similar to the one described in Example A, but substituting FRDA cells with cells obtained from CoQ10 deficient patients harboring a CoQ2 mutation.

[3] = tested on: human dermal fibroblasts from Huntington's patients; experiment: Rescue of BSO-stressed fibroblasts from Huntington's patients (Example B); details: Fibroblast, Huntington's fibroblasts GM 04281, screen as Example A, read-out: protection against Hungtington's, EC50
Protocol: The compounds were tested for their ability to rescue human dermal fibroblasts from Huntington's patients from oxidative stress.

[4] = tested on: human dermal fibroblasts from LHON patients; experiment: Rescue of BSO-stressed fibroblasts from LHON patients (Example C); details: Fibroblast, LHON fibroblasts GM03858, screen as Example A, read-out: protection against LHON, EC50
Protocol: The compounds were tested for their ability to rescue human dermal fibroblasts from LHON patients from oxidative stress.

[5] = tested on: human dermal fibroblasts from Parkinson's Disease patients; experiment: Rescue of BSO-stressed fibroblasts from Parkinson's Disease patients (Example D); details: Fibroblast, PD fibroblasts AG20439, screen as Example A, read-out: protection against PD, EC50
Protocol: The compounds were tested for their ability to rescue human dermal fibroblasts from Parkinson's Disease patients from oxidative stress.

Structure (SMILES)	EC50 [1] [nM]	EC50 [2] [nM]	EC50 [3] [nM]	EC50 [4] [nM]	EC50 [5] [nM]
CC1=C(C)C(=O)C(CCC(C)(O)C(=O)N2CCNCC2)=C(C)C1=O (stereo not drawn) [2-(3-hydroxy-3-methyl-4-oxo-4-(piperazin-1-yl)butyl)-3,5,6-trimethylcyclohexa-2,5-diene-1,4-dione]	< 100	< 100			
CC1=C(C)C(=O)C(CC[C@](C)(O)C(N)=O)=C(C)C1=O [(S)-2-hydroxy-2-methyl-4-(2,4,5-trimethyl-3,6-dioxocyclohexa-1,4-dienyl)butanamide]	< 100	< 100	< 100	< 100	
CC1=C(C)C(=O)C(CCC(C)(O)C(=O)NCc2ccc(F)cc2)=C(C)C1=O (stereo not drawn) [N-(4-fluorobenzyl)-2-hydroxy-2-methyl-4-(2,4,5-trimethyl-3,6-dioxocyclohexa-1,4-dienyl)butanamide]	< 100		< 100	< 100	
CC1=C(C)C(=O)C(CCC(C)(O)C(N)=O)=C(C)C1=O (stereo not drawn) [Example 16, 2-Hydroxy-2-methyl-4-(2,4,5-trimethyl-3,6-dioxocyclohexa-1,4-dienyl)butanamide]	< 100	< 100	< 100	< 100	
CC1=C(C)C(=O)C(CC[C@@](C)(O)C(=O)NCCO)=C(C)C1=O [Example 24, (R)-2-Hydroxy-N-(2-hydroxyethyl)-2-methyl-4-(2,4,5-trimethyl-3,6-dioxocyclohexa-1,4-dienyl)butanamide]	< 100		< 100		< 100
CC1=C(C)C(=O)C(CCC(C)(O)C(=O)NC(C)CO)=C(C)C1=O (stereo not drawn) [Example 19, 2-Hydroxy-N-(1-hydroxypropan-2-yl)-2-methyl-4-(2,4,5-trimethyl-3,6-dioxocyclohexa-1,4-dienyl)butanamide]	< 100		< 100	< 100	
CC1=C(C)C(=O)C(CCC(C)(O)C(=O)NCCCN(C)C)=C(C)C1=O (stereo not drawn) [Example 40, N-(3-(Dimethylamino)propyl)-2-hydroxy-2-methyl-4-(2,4,5-trimethyl-3,6-dioxocyclohexa-1,4-dienyl)butanamide]	< 100		< 100		< 100
CC1=C(C)C(=O)C(CCC(C)(O)C(=O)NCc2cccnc2)=C(C)C1=O (stereo not drawn) [2-hydroxy-2-methyl-N-(pyridin-3-ylmethyl)-4-(2,4,5-trimethyl-3,6-dioxocyclohexa-1,4-dienyl)butanamide]		< 100		< 100	
CC1=C(C)C(=O)C(CCC(C)(O)C(=O)N2CCN(C(=O)OC(C)(C)C)CC2)=C(C)C1=O (stereo not drawn) [tert-butyl 4-(2-hydroxy-2-methyl-4-(2,4,5-trimethyl-3,6-dioxocyclohexa-1,4-dienyl)butanoyl)piperazine-1-carboxylate]		< 100			
CC1=C(C)C(=O)C(CCC(C)(O)C(=O)NC(C)C)=C(C)C1=O (stereo not drawn) [2-hydroxy-N-isopropyl-2-methyl-4-(2,4,5-trimethyl-3,6-dioxocyclohexa-1,4-dienyl)butanamide]					< 100
CC1=C(C)C(=O)C(CCC(C)(O)C(=O)NCCc2cccc(Cl)c2)=C(C)C1=O (stereo not drawn) [N-(3-chlorophenethyl)-2-hydroxy-2-methyl-4-(2,4,5-trimethyl-3,6-dioxocyclohexa-1,4-dienyl)butanamide]	< 100		< 100	< 100	
CC1=C(C)C(=O)C(CCC(C)(O)C(=O)NCCCO)=C(C)C1=O (stereo not drawn) [Example 9, 2-Hydroxy-N-(3-hydroxypropyl)-2-methyl-4-(2,4,5-trimethyl-3,6-dioxocyclohexa-1,4-dienyl)butanamide]	< 100		< 100	< 100	
CCCCCCNC(=O)C(C)(O)CCC1=C(C)C(=O)C(C)=C(C)C1=O (stereo not drawn) [Example 43, N-hexyl-2-hydroxy-2-methyl-4-(2,4,5-trimethyl-3,6-dioxocyclohexa-1,4-dienyl)butanamide]		< 100		< 100	
CC(=O)N1CCN(C(=O)C(C)(O)CCC2=C(C)C(=O)C(C)=C(C)C2=O)CC1 (stereo not drawn) [2-(4-(4-acetylpiperazin-1-yl)-3-hydroxy-3-methyl-4-oxobutyl)-3,5,6-trimethylcyclohexa-2,5-diene-1,4-dione]	< 100	< 100	< 100	< 100	
CC1=C(C)C(=O)C(CCC(C)(O)C(=O)NCCc2ccc(Cl)cc2)=C(C)C1=O (stereo not drawn) [N-(4-chlorophenethyl)-2-hydroxy-2-methyl-4-(2,4,5-trimethyl-3,6-dioxocyclohexa-1,4-dienyl)butanamide]	< 100	< 100	< 100	< 100	
CC1=C(C)C(=O)C(CCC(C)(O)C(=O)NCc2cccc(Cl)c2)=C(C)C1=O (stereo not drawn) [N-(3-chlorobenzyl)-2-hydroxy-2-methyl-4-(2,4,5-trimethyl-3,6-dioxocyclohexa-1,4-dienyl)butanamide]	< 100		< 100	< 100	
CC1=C(C)C(=O)C(CC[C@@](C)(O)C(N)=O)=C(C)C1=O [(R)-2-hydroxy-2-methyl-4-(2,4,5-trimethyl-3,6-dioxocyclohexa-1,4-dienyl)butanamide]	< 100		< 100	< 100	
CC1=C(C)C(=O)C(CCC(C)(O)C(=O)NCCc2ccccc2Cl)=C(C)C1=O (stereo not drawn) [N-(2-chlorophenethyl)-2-hydroxy-2-methyl-4-(2,4,5-trimethyl-3,6-dioxocyclohexa-1,4-dienyl)butanamide]	< 100	< 100			
CC1=C(C)C(=O)C(CCC(C)(O)C(=O)NCCc2ccc(F)cc2)=C(C)C1=O (stereo not drawn) [N-(4-fluorophenethyl)-2-hydroxy-2-methyl-4-(2,4,5-trimethyl-3,6-dioxocyclohexa-1,4-dienyl)butanamide]	< 100		< 100	< 100	
CC1=C(C)C(=O)C(CCC(C)(O)C(=O)NCc2ccc(Cl)cc2)=C(C)C1=O (stereo not drawn) [N-(4-chlorobenzyl)-2-hydroxy-2-methyl-4-(2,4,5-trimethyl-3,6-dioxocyclohexa-1,4-dienyl)butanamide]	< 100		< 100	< 100	
CC1=C(C)C(=O)C(CCC(C)(O)C(=O)NCCCCO)=C(C)C1=O (stereo not drawn) [Example 17, 2-Hydroxy-N-(4-hydroxybutyl)-2-methyl-4-(2,4,5-trimethyl-3,6-dioxocyclohexa-1,4-dienyl)butanamide]	< 100		< 100	< 100	
CC1=C(C)C(=O)C(CCC(C)(O)C(=O)Nc2ccc(F)cc2)=C(C)C1=O (stereo not drawn) [N-(4-fluorophenyl)-2-hydroxy-2-methyl-4-(2,4,5-trimethyl-3,6-dioxocyclohexa-1,4-dienyl)butanamide]	< 100	< 100	< 100	< 100	
CC1=C(C)C(=O)C(CCC(C)(O)C(=O)NCc2ccccc2Cl)=C(C)C1=O (stereo not drawn) [N-(2-chlorobenzyl)-2-hydroxy-2-methyl-4-(2,4,5-trimethyl-3,6-dioxocyclohexa-1,4-dienyl)butanamide]	< 100		< 100	< 100	
